# Test results published in article PMC6915999, “Simultaneous hydrolysis with lipase and fermentation of rapeseed cake for iturin A production by Bacillus amyloliquefaciens CX-20” (BMC Biotechnology, 2019).
# Test system: lipase
# Experiment: Stability of iturin A to lipase in fermentation broth
# Assay type: in vitro ADME
# Settings: RSM (76.52 g/L) fermentation broth after 72 h fermentation; 5 U/mL lipase added vs no lipase; continued at 28 °C, 220 rpm; iturin A concentration at 0, 24, 48 and 72 h by HPLC (210 nm); triplicate; Fig. 5
# Procedure: Iturin A was extracted according to a reported method. Briefly, 0.3 mL of the mixed fermentation broth was added into a 2 mL glass tube containing 1.2 mL of methanol, shaken well and incubated for 60 min. The mixture was centrifuged at 12,000 rpm for 20 min, and the supernatant was filtered through a 0.22 μm pore-size hydrophobic polytetrafluoroethylene (PTFE) type disposable syringe. The iturin A concentration was quantified using a Waters 2695 HPLC system equipped with an ACQUITY UPLC BEA C18 column (1.7 μm 2.1 × 100 mm, Waters, USA). A mixture of acetonitrile and 10 mM ammonium acetate (35:65, v/v) was used as the mobile phase at a flow rate of 0.3 mL/min, and the elution was monitored at 210 nm. The concentration of iturin A was analyzed and quantified using an authentic reference standard (Sigma Chemicals, St. Louis, MO, USA). The content of iturin A was measured using triplicate samples.
# First, submerged fermentation were performed in 250 mL flasks with 20 mL medium, containing (per liter): 60 g glucose, 1 g K2HPO4·3H2O, 0.5 g MgSO4·7H2O, 0.005 g MnSO4·H2O, and 76.52 g RSM. After 72 h of fermentation, the fermentation broth was divided into two groups. Therein, one group supplemented with 5 U/mL lipase while the other without lipase addition. […] And the concentrations of iturin A at different time (0, 24, 48 and 72 h) were measured.
substance,measurement,value
iturin A,stability of iturin A to excess lipase,almost no effect on the stability of iturin A
